From US7285572B2, “CaSR antagonist” (Japan Tobacco Inc., priority 2003, dated 2007)

Assays:
PTH secretion [1] = assay: PTH secretagogue action, oral administration to fasted male SD rats, serum PTH by ELISA; format: in vivo, rat; conditions: test compound administration group
Protocol: The test compound was orally administered to 5 to 9-week-old male SD rats (Charles River Japan, Inc.) fasted for 20 hr, using a solvent (0.5% aqueous methyl cellulose solution) at a dose of 3 mg/5 ml/kg or 30 mg/5 ml/kg. A solvent alone was orally administered to the control group at a dose of 5 ml/kg. The blood was drawn from the tail vein 15 min, 30 min, 60 min and 120 min after the administration of the test compound, and serum was obtained. The serum PTH concentration was measured using rat PTH ELISA kit (Amersham Biosciences).

CYP2D6 = molecular target: T1, CYP2D6 (Homo sapiens, UniProt P10635); assay: Metabolic enzyme CYP2D6 inhibitory activity (BD Bioscience kit); format: in vitro ADME; conditions: enzyme activity free of test compound as 100%; read-out: CYP2D6 IC50 (concentration showing 50% inhibition)
T1 construct: purchased BD Bioscience
Protocol: Metabolic Enzyme CYP2D6 Inhibitory Activity
Using a metabolic enzyme CYP2D6 inhibition measurement kit (BD Bioscience) and following the manual of the kit, the inhibitory activity of the test compound was measured. With the enzyme activity free of the test compound as 100%, the concentration (IC50) showing 50% inhibition was determined. The results are shown in Table 8, wherein “>10” means over 10 μM.

human calcium receptor = molecular target: T2, human calcium receptor (Homo sapiens, UniProt P41180); assay: Evaluation of antagonistic action on calcium receptor using reporter gene (luciferase); format: cell-based; conditions: rat adrenal derived cells with luciferase and human calcium receptor cDNA, 5 mM calcium chloride, 4 hrs; read-out: IC50 (concentration showing 50% inhibitory rate of luciferase activity)
T2 construct: expressed in transfected cells; host or cells: cell strain derived from rat adrenal, co-transfected with luciferase cDNA
T2 sequence (P41180 20-1078): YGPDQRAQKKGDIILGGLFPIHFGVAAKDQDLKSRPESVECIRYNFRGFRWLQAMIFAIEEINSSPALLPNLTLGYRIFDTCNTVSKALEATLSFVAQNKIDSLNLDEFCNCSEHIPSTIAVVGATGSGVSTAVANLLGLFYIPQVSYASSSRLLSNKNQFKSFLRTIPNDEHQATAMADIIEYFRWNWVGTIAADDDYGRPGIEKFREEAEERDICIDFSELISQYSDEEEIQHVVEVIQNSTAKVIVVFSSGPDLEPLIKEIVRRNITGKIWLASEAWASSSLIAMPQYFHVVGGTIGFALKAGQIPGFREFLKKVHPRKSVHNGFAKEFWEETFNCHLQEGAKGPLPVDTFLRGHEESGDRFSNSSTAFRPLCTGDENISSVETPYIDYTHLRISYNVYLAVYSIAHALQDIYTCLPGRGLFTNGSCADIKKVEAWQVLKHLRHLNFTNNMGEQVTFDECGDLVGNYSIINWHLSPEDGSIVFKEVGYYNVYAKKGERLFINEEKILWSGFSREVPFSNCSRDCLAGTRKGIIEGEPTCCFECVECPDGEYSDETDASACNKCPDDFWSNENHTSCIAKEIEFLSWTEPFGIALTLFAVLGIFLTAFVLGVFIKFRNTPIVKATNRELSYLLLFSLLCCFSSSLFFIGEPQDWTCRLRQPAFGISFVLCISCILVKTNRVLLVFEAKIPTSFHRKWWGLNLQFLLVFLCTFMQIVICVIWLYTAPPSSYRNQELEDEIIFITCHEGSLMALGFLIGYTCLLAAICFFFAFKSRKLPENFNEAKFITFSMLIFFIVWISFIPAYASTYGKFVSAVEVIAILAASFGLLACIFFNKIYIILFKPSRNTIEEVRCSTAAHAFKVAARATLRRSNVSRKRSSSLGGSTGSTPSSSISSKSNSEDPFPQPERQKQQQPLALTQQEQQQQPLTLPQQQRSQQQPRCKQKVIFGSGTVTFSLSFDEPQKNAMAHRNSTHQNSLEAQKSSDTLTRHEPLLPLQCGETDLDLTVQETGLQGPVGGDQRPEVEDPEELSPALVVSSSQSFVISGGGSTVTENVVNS
Protocol: Evaluation of Antagonistic Action on Calcium Receptor Using Reporter Gene
Luciferase cDNA and human calcium receptor cDNA were introduced into a cell strain derived from rat adrenal to transform the cells, and the transformed cells were cultured in a medium (80 μl, F12 medium containing 0.5% dialyzed horse serum and 0.25% dialyzed bovine fetal serum). A dimethyl sulfoxide solution containing a test compound at 0.1-10000 μM was diluted 100-fold with the medium and added to the test compound group at 10 μl per well (final concentration of dimethyl sulfoxide is 0.1%). In the same manner as in test compound group, dimethyl sulfoxide diluted 100-fold with medium was added to a control group and a blank group. Then, 50 mM calcium chloride-containing medium was added to every well except the blank group at 10 μl per well (final concentration is 5 mM). A medium alone was added to the blank group. After culture for 4 hrs, luciferase substrate was added and the luciferase activity was measured with a photoluminometer. The inhibitory rate (%) was calculated from the obtained measured values according to the following formula.
Based on the results, the concentration (IC50) showing 50% inhibitory rate was determined.

[2] = test system: osteoblast and osteoclast; conditions: in vitro; cited from earlier work
PTH secretion [3] = assay: Reproductive test of NPS-2143 of the reference (PTH secretion); format: in vivo
PTH release = conditions: cited from earlier work
[4] = rat PTH (1-34) 5 μg/kg, OVX rat

T1 sequence (P10635 whole entry): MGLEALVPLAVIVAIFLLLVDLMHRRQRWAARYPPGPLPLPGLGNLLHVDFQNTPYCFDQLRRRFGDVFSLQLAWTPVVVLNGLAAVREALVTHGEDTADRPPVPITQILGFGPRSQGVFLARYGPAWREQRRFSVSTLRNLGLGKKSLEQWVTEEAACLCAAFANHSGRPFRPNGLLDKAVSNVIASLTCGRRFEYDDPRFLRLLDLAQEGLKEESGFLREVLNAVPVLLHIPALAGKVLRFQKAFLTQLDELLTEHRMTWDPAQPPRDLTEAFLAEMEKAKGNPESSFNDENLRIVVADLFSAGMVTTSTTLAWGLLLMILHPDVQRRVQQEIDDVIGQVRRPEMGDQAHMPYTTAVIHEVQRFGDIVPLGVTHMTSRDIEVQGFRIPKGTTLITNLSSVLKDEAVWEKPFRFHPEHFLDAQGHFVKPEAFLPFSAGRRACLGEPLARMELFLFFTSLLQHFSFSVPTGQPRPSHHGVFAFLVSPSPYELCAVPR

C[C@@H](OC[C@H](O)CNC(C)(C)Cc1ccc2ccccc2c1)c1ccccc1CCC(=O)O [Example 1, 3-[2-[(1R)-1-[(2R)-2-hydroxy-3-[[2-methyl-1-(naphthalen-2-yl)propan-2-yl]amino]propoxy]ethyl]phenyl]propionic acid]
serum PTH concentration 15 min later (PTH secretion [1]; 3 mg/kg oral): 24.86 ± 3.59 pg/mL
serum PTH concentration 30 min later (PTH secretion [1]; 3 mg/kg oral): 18.58 ± 2.15 pg/mL
IC50 (CYP2D6): 9500 nM
IC50 (human calcium receptor): 25 nM

C[C@@H](OC[C@H](O)CNC(C)(C)Cc1ccc2ccccc2c1)c1ccccc1-c1cccc(CC(=O)O)c1 [Example 4, [2′-[(1R)-1-[(2R)-2-hydroxy-3-[[2-methyl-1-(naphthalen-2-yl)propan-2-yl]amino]propoxy]ethyl]biphenyl-3-yl]acetic acid]
serum PTH concentration 15 min later (PTH secretion [1]; 3 mg/kg oral): 22.71 ± 2.52 pg/mL
serum PTH concentration 30 min later (PTH secretion [1]; 3 mg/kg oral): 22.83 ± 2.91 pg/mL
serum PTH concentration 60 min later (PTH secretion [1]; 3 mg/kg oral): 13.69 ± 2.09 pg/mL
serum PTH concentration 120 min later (PTH secretion [1]; 3 mg/kg oral): 11.76 ± 1.24 pg/mL
IC50 (human calcium receptor): 11 nM

Cc1ccccc1[C@H](OC[C@@H](CNC(C)(C)Cc1ccc2ccccc2c1)OC(=O)/C=C\C(=O)O)C1CC1 [Example 6, (Z)-butenedioic acid mono-[(2R)-1-[(1R)-(cyclopropyl)-(2-methylphenyl)methoxy]-3-[[2-methyl-1-(naphthalen-2-yl)propan-2-yl]amino]propan-2-yl]ester]
serum PTH concentration 30 min later (PTH secretion [1]; 30 mg/kg oral): 14.45 ± 1.45 pg/mL
serum PTH concentration 60 min later (PTH secretion [1]; 30 mg/kg oral): 13.91 ± 1.62 pg/mL
IC50 (human calcium receptor): 79 nM

C[C@@H](OC[C@H](O)CNC(C)(C)Cc1ccc2ccccc2c1)c1ccccc1-c1ccc(P(=O)(O)O)cc1 [Example 12, Disodium [2′-[(1R)-1-[(2R)-2-hydroxy-3-[[2-methyl-1-(naphthalen-2-yl)propan-2-yl]amino]propoxy]ethyl]biphenyl-4-yl]phosphonate]
IC50 (CYP2D6): > 10000 nM
IC50 (human calcium receptor): 29 nM

CC(OC[C@H](O)CNC(C)(C)Cc1ccc2ccccc2c1)c1ccccc1-c1ccc(C(=O)NS(C)(=O)=O)cc1 (stereo partly drawn) [Example 18]
IC50 (CYP2D6): 8000 nM
IC50 (human calcium receptor): 22 nM

C[C@@H](OC[C@H](O)CNC(C)(C)Cc1ccc2ccccc2c1)c1ccccc1/C=C/C(=O)O [Example 23]
IC50 (human calcium receptor): 16 nM

C[C@@H](OC[C@H](O)CNC(C)(C)Cc1ccc2ccccc2c1)c1ccccc1OCCCC(=O)O [Example 24]
IC50 (human calcium receptor): 246 nM

C[C@@H](OC[C@H](O)CNC(C)(C)Cc1ccc2ccccc2c1)c1ccccc1CCCCC(=O)O [Example 25]
serum PTH concentration 15 min later (PTH secretion [1]; 3 mg/kg oral): 19.16 ± 4.05 pg/mL
serum PTH concentration 30 min later (PTH secretion [1]; 3 mg/kg oral): 18.15 ± 3.15 pg/mL
IC50 (human calcium receptor): 18 nM

CC(OC[C@H](O)CNC(C)(C)Cc1ccc2ccccc2c1)c1ccccc1OCCCCC(=O)O (stereo partly drawn) [Example 26]
IC50 (human calcium receptor): 190 nM

C=Cc1ccc(CC(C)(C)NC[C@@H](O)CO[C@H](C)c2ccccc2-c2ccc(C(=O)O)cc2)cc1 [Example 27]
IC50 (human calcium receptor): 14 nM

C[C@@H](OC[C@H](O)CNC(C)(C)Cc1ccc2ccccc2c1)c1ccccc1-c1ccc([N+](=O)[O-])cc1 [Example 28]
IC50 (human calcium receptor): 254 nM

C[C@@H](OC[C@H](O)CNC(C)(C)Cc1ccc2ccccc2c1)c1ccccc1-c1ccc(N)cc1 [Example 29]
IC50 (human calcium receptor): 55 nM

Cc1ccc(CC(C)(C)NC[C@@H](O)CO[C@H](C)c2ccccc2OCc2ccc(C(=O)O)s2)cc1F [Example 30]
IC50 (human calcium receptor): 183 nM

CC(C)(Cc1ccc2ccccc2c1)NC[C@@H](O)COc1cccc(Cl)c1C#N [NPS-2143]
direct effect on osteoblast and osteoclast [2]: did not show any direct effect
PTH secretion promoting action (duration) (PTH secretion [3]): sustained PTH secretion promoting action
blood concentration of NPS-2143 8 hours after the administration (PTH release; 100 μmol/kg, OVX rat): not less than 100 ng/ml
blood concentration of NPS-2143 24 hours later (PTH release; 100 μmol/kg, OVX rat): ≤ 10 ng/mL
blood PTH concentration 4 hours later (PTH release; NPS-2143 100 μmol/kg, OVX rat): about 140 pg/ml
blood PTH concentration in 30 minutes (PTH release; NPS-2143 100 μmol/kg, OVX rat): about 115 pg/ml
bone decrease or bone increase (PTH release; oral, OVX rats): free of bone decrease or bone increase
release of PTH (PTH release; oral, OVX rats): significantly promotes release of PTH

rat PTH (1-34): rat parathyroid hormone fragment (1-34) administered to OVX rat
blood PTH concentration peak in 30 minutes (PTH release; [4]): about 175 pg/ml
time for blood PTH concentration to return to the original level (PTH release; [4]): 2 h
